ChEMBL document CHEMBL1201862, “PubChem BioAssay data set” (2004)
The source made the active and inactive calls.

Key:
Protein RecA = molecular target: T1, Protein RecA (Mycobacterium tuberculosis, UniProt P9WHJ3); test: Fluorescence Cell-Free Homogeneous Dose Retest to Identify Inhibitors of RecA-Intein Splicing Activity. [Related pubchem assays (depositor defined):AID2097, AID2223, AID489010, AID492950]; assay type: functional
T1 sequence (P9WHJ3 whole entry): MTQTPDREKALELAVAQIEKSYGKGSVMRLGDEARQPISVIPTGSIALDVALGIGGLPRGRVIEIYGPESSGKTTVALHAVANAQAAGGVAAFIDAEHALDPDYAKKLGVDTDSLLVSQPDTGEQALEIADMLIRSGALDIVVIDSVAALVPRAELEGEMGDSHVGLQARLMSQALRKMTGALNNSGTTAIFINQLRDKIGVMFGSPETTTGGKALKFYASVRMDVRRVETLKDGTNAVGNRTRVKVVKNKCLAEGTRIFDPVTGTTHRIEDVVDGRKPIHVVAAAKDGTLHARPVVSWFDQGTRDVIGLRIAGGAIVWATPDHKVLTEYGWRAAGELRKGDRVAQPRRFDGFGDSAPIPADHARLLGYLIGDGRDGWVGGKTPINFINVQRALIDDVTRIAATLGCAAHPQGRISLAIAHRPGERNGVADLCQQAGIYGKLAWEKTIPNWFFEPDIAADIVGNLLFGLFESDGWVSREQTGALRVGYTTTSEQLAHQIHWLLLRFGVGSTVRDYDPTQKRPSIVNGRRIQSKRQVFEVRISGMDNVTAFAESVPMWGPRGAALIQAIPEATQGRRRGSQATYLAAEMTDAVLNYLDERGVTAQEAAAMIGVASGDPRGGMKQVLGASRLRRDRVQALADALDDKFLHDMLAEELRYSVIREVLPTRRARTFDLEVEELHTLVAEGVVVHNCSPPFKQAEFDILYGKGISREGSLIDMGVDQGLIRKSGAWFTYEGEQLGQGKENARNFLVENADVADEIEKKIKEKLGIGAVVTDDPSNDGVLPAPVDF

[1] = molecular target: T2, Histone-lysine N-methyltransferase NSD2 (Homo sapiens, UniProt O96028); assay type: biochemical
T2 sequence (O96028 whole entry): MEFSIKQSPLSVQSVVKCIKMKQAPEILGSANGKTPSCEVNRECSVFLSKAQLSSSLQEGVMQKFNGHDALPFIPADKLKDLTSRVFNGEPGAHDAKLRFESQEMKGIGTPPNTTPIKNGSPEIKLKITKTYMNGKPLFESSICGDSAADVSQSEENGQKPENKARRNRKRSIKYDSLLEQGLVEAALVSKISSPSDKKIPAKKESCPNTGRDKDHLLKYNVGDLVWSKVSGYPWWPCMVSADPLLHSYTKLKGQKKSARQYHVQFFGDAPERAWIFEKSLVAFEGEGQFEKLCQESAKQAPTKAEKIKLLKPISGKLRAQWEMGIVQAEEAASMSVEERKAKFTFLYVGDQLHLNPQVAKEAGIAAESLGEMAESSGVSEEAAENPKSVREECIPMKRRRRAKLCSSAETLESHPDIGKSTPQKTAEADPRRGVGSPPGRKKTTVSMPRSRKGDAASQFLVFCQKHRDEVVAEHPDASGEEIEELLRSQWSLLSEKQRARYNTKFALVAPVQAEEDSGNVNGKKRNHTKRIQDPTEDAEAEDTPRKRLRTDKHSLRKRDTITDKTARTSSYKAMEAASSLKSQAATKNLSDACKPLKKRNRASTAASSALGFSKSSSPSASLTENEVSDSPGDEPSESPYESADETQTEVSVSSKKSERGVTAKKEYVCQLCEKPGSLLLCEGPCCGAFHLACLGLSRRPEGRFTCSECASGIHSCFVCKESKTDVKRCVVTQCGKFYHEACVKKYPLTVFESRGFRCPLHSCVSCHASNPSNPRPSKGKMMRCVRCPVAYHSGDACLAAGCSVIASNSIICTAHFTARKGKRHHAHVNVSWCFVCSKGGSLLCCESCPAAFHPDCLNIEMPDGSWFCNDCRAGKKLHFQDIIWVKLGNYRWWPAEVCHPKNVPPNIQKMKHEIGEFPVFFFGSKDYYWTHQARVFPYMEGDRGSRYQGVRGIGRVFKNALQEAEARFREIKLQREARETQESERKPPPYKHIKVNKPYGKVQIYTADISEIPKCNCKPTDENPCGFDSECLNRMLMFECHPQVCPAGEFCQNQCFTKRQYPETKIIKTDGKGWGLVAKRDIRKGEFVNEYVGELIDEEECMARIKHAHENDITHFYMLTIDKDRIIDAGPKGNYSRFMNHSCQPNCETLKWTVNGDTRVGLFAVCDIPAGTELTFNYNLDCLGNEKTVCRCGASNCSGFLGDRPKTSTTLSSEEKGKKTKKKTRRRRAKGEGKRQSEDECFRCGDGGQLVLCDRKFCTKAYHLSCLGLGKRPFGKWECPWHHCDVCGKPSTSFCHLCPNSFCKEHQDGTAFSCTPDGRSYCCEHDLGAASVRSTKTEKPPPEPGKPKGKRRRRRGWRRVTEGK

**Q.** With `C=CCNC1=C(Cl)C(=O)c2ccccc2C1=O` as the compound, how does the EC50 (Protein RecA) read?
**A.** Its EC50 is 10.4 µM (active).

**Q.** And the AC50 [1]?
**A.** Its AC50 is 19.4 µM (active).

**Q.** For `CS(=O)(=O)c1ccc2c(c1)SC1=NC(=O)/C(=C/c3ccc(O)c(O)c3)C(=N)N12`, which AC50 [1] is on record?
**A.** Its AC50 is 1.9 µM (active).

**Q.** Which results are given for `CCOC(=O)C(C(=O)OCC)c1cc(Br)c2noc3c2c1C(=O)c1ccccc1-3`?
**A.** EC50 (Protein RecA): 0.393 µM (active); AC50 [1]: > 20 µM (inactive)
